Where “and” joins values, the source holds several entries; their conditions need not be identical. Equal values may be shown once. Toxic doses and inconclusive results are not listed. The calls were made as follows: active = survival T/C of 150% or more; inactive = T/C below 125% in these data.
Test system: P388 leukemia ip, CD2F1 mice, survival T/C
Assay: NCI In Vivo Anticancer Drug Screen. Data for tumor model P388 Leukemia (intraperitoneal) in CD2F1 (CDF1) mice
Conditions: endpoint: median survival time, higher = longer survival
In short: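 Mice carrying the transplanted tumor received test compound or vehicle. Survival was recorded in each group, and the value is the treated-group measurement divided by that of the vehicle-treated control group.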

[1] = dose: 50.0 mg/kg/injection, schedule: Q01DX005 (ip), vehicle: Klucel (hydroxypropylcellulose) (HPC)
[2] = dose: 100.0 mg/kg/injection, schedule: Q01DX005 (ip), vehicle: Klucel (hydroxypropylcellulose) (HPC)
[3] = dose: 200.0 mg/kg/injection, schedule: Q01DX005 (ip), vehicle: Klucel (hydroxypropylcellulose) (HPC)
[4] = dose: 100.0 mg/kg/injection, schedule: Q04DX003 (ip), vehicle: saline with Tween-80
[5] = dose: 200.0 mg/kg/injection, schedule: Q04DX003 (ip), vehicle: saline with Tween-80
[6] = dose: 400.0 mg/kg/injection, schedule: Q04DX003 (ip), vehicle: saline with Tween-80
[7] = dose: 60.0 mg/kg/injection, schedule: Q01DX005 (ip), vehicle: Klucel (hydroxypropylcellulose) (HPC)
[8] = dose: 120.0 mg/kg/injection, schedule: Q01DX005 (ip), vehicle: Klucel (hydroxypropylcellulose) (HPC)
[9] = dose: 240.0 mg/kg/injection, schedule: Q01DX005 (ip), vehicle: Klucel (hydroxypropylcellulose) (HPC)
[10] = dose: 100.0 mg/kg/injection, schedule: Q01DX009 (ip), vehicle: Klucel (hydroxypropylcellulose) (HPC)
[11] = dose: 200.0 mg/kg/injection, schedule: Q01DX009 (ip), vehicle: Klucel (hydroxypropylcellulose) (HPC)
[12] = dose: 50.0 mg/kg/injection, schedule: Q01DX005 (ip), vehicle: saline with Tween-80
[13] = dose: 100.0 mg/kg/injection, schedule: Q01DX005 (ip), vehicle: saline with Tween-80
[14] = dose: 200.0 mg/kg/injection, schedule: Q01DX005 (ip), vehicle: saline with Tween-80

Measured: T/C

c1ccc(CNNc2nn[nH]n2)cc1
inactive: dose: 100.0 mg/kg/injection, schedule: Q01DX001 (ip), vehicle: Klucel (hydroxypropylcellulose) (HPC) 96 % of control | dose: 200.0 mg/kg/injection, schedule: Q01DX001 (ip), vehicle: Klucel (hydroxypropylcellulose) (HPC) 95 % of control | dose: 400.0 mg/kg/injection, schedule: Q01DX001 (ip), vehicle: Klucel (hydroxypropylcellulose) (HPC) 96 % of control

O=C(CCOCCCOCCC(=O)OCCCBr)OCCCBr
inactive: [1] 102 % of control | [2] 98 % of control | [3] 98 % of control

C/C=C/c1cc(OC)c2c(c1)[C@H](C)C(c1ccc(O)c(OC)c1)O2 (some centres undefined)
inactive: dose: 37.5 mg/kg/injection, schedule: Q01DX005 (ip), vehicle: Klucel (hydroxypropylcellulose) (HPC) 106 % of control | dose: 75.0 mg/kg/injection, schedule: Q01DX005 (ip), vehicle: Klucel (hydroxypropylcellulose) (HPC) 97 % of control | dose: 150.0 mg/kg/injection, schedule: Q01DX005 (ip), vehicle: Klucel (hydroxypropylcellulose) (HPC) 95 % of control

S=c1ncnc2c1ccc1[nH][nH]cc12
inactive: dose: 100.0 mg/kg/injection, schedule: Q04DX002 (ip), vehicle: saline with Tween-80 88 % of control | dose: 200.0 mg/kg/injection, schedule: Q04DX002 (ip), vehicle: saline with Tween-80 92 % of control | dose: 400.0 mg/kg/injection, schedule: Q04DX002 (ip), vehicle: saline with Tween-80 107 % of control

C1=CCC23CCCCC2(C1)CN(/N=N/N1CC24CC=CCC2(CCCC4)C1)C3 (centres undefined)
inactive: dose: 6.25 mg/kg/injection, schedule: Q01DX009 (ip), vehicle: Klucel (hydroxypropylcellulose) (HPC) 87 % of control | dose: 12.5 mg/kg/injection, schedule: Q01DX009 (ip), vehicle: Klucel (hydroxypropylcellulose) (HPC) 86 % of control

O=[N+]([O-])c1ccc(SC2=NCCCN2C2CCCCC2)c(Cl)c1
inactive: [1] 97 % of control | [2] 100 % of control | [3] 103 % of control

CN(c1ccccc1)C1C2=C(CCCC2)OC(=O)C12SCCCS2 (centres undefined)
inactive: dose: 25.0 mg/kg/injection, schedule: Q04DX003 (ip), vehicle: saline with Tween-80 94 % of control | dose: 50.0 mg/kg/injection, schedule: Q04DX003 (ip), vehicle: saline with Tween-80 96 % of control | [4] 100 % of control and 98 % of control | dose: 132.0 mg/kg/injection, schedule: Q04DX003 (ip), vehicle: saline with Tween-80 98 % of control | [5] 106 % of control | dose: 300.0 mg/kg/injection, schedule: Q04DX003 (ip), vehicle: saline with Tween-80 119 % of control | [6] 105 % of control and 98 % of control

Cc1ccc(NC(=O)OCCN(C)C(=O)Nc2ccc(C)cc2C)c(C)c1
inactive: dose: 30.0 mg/kg/injection, schedule: Q01DX005 (ip), vehicle: Klucel (hydroxypropylcellulose) (HPC) 98 % of control | [7] 103 % of control and 94 % of control | [8] 98 % of control | [9] 86 % of control

NNC(=O)C1CC2CCCCC2CC1O (centres undefined)
inactive: dose: 100.0 mg/kg/injection, schedule: Q04DX002 (ip), vehicle: Klucel (hydroxypropylcellulose) (HPC) 101 % of control | dose: 200.0 mg/kg/injection, schedule: Q04DX002 (ip), vehicle: Klucel (hydroxypropylcellulose) (HPC) 99 % of control | dose: 400.0 mg/kg/injection, schedule: Q04DX002 (ip), vehicle: Klucel (hydroxypropylcellulose) (HPC) 108 % of control

Cc1ccc(S(=O)OC2CC(C)CCC2C(C)C)cc1 (centres undefined)
inactive: dose: 50.0 mg/kg/injection, schedule: Q01DX009 (ip), vehicle: Klucel (hydroxypropylcellulose) (HPC) 100 % of control | [10] 101 % of control | [11] 100 % of control

Cc1coc2c1CC1(C)C(CCC(OC(=O)CC(C)C)C1C)C2=O (centres undefined) (tested in a mixture with another compound)
inactive: [10] 105 % of control | [11] 93 % of control

COC(=O)C1OC(SCCN)C(O)C(O)C1O (centres undefined)
inactive: dose: 50.0 mg/kg/injection, schedule: Q01DX009 (ip), vehicle: water 100 % of control | dose: 100.0 mg/kg/injection, schedule: Q01DX009 (ip), vehicle: water 102 % of control | dose: 200.0 mg/kg/injection, schedule: Q01DX009 (ip), vehicle: water 91 % of control

CC[C@H](C)C(NC(=O)[C@H]1N=C(c2csc(C(O)Cc3ccccc3)n2)OC1C)C(=O)OC (some centres undefined)
inactive: dose: 60.0 mg/kg/injection, schedule: Q01DX005 (ip), vehicle: saline with Tween-80 99 % of control | dose: 120.0 mg/kg/injection, schedule: Q01DX005 (ip), vehicle: saline with Tween-80 98 % of control | dose: 240.0 mg/kg/injection, schedule: Q01DX005 (ip), vehicle: saline with Tween-80 100 % of control

CC1(O)c2ccccc2[P+](C)(c2ccccc2)c2ccccc21 (centres undefined)
inactive: dose: 12.5 mg/kg/injection, schedule: Q01DX009 (ip), vehicle: saline with Tween-80 111 % of control | dose: 25.0 mg/kg/injection, schedule: Q01DX009 (ip), vehicle: saline with Tween-80 109 % of control

[Be]=[Se]
inactive: dose: 7.5 mg/kg/injection, schedule: Q01DX005 (ip), vehicle: other 97 % of control | dose: 15.0 mg/kg/injection, schedule: Q01DX005 (ip), vehicle: other 103 % of control and 108 % of control

Cn1c2ccccc2c(=Nc2ccc(S(=O)(=O)N=C(N)N)cc2)c2ccccc21
inactive: [12] 106 % of control | [13] 96 % of control

COc1ccc2c(c1OC)C(=O)N1CCc3cc4c(cc3C1C2C(=O)O)OCO4 (centres undefined)
inactive: dose: 50.0 mg/kg/injection, schedule: Q04DX003 (ip), vehicle: distilled water + Tween-80 100 % of control | dose: 100.0 mg/kg/injection, schedule: Q04DX003 (ip), vehicle: distilled water + Tween-80 109 % of control | dose: 200.0 mg/kg/injection, schedule: Q04DX003 (ip), vehicle: distilled water + Tween-80 100 % of control | dose: 400.0 mg/kg/injection, schedule: Q04DX003 (ip), vehicle: distilled water + Tween-80 104 % of control

COC(=O)C1CC23C4=C(CCC41)CCC1CN4CC(C)C(CC(OC(C)=O)C12COC(C)=O)C43O (centres undefined)
inactive: dose: 0.78 mg/kg/injection, schedule: Q01DX009 (ip), vehicle: suspension in saline 108 % of control | dose: 1.56 mg/kg/injection, schedule: Q01DX009 (ip), vehicle: suspension in saline 104 % of control | dose: 3.13 mg/kg/injection, schedule: Q01DX009 (ip), vehicle: suspension in saline 100 % of control | dose: 6.25 mg/kg/injection, schedule: Q01DX009 (ip), vehicle: suspension in saline 104 % of control

O=C1c2ccccc2C(=O)c2c1c(Cl)cc1c(=O)c3cc(Cl)cc(Cl)c3[nH]c21
inactive: [12] 99 % of control | [13] 95 % of control | [14] 92 % of control

Cc1ccc(/C=C/C(=O)/C=C/c2ccc(C)o2)o1
inactive: dose: 25.0 mg/kg/injection, schedule: Q01DX005 (ip), vehicle: DMSO 107 % of control | dose: 50.0 mg/kg/injection, schedule: Q01DX005 (ip), vehicle: DMSO 104 % of control | [12] 99 % of control | dose: 100.0 mg/kg/injection, schedule: Q01DX005 (ip), vehicle: DMSO 104 % of control | [13] 96 % of control | dose: 200.0 mg/kg/injection, schedule: Q01DX005 (ip), vehicle: DMSO 97 % of control | [14] 100 % of control | dose: 400.0 mg/kg/injection, schedule: Q01DX005 (ip), vehicle: DMSO 101 % of control

C[N+]1(C[Si](C)(C)c2ccccc2)CCCCC1
inactive: dose: 12.5 mg/kg/injection, schedule: Q01DX005 (ip), vehicle: saline 104 % of control | dose: 25.0 mg/kg/injection, schedule: Q01DX005 (ip), vehicle: saline 100 % of control | dose: 50.0 mg/kg/injection, schedule: Q01DX005 (ip), vehicle: saline 101 % of control and 105 % of control

CN(C)C1=Nc2ccc(Cl)cc2C(c2ccccc2)=NC1O (centres undefined)
inactive: [7] 95 % of control | [8] 98 % of control | [9] 100 % of control

FC(F)(F)CO[Te](OCC(F)(F)F)(OCC(F)(F)F)OCC(F)(F)F
inactive: dose: 12.5 mg/kg/injection, schedule: Q01DX001 (ip), vehicle: saline with Tween-80 106 % of control

Cc1nc2c([N+](=O)[O-])c(NCCO)c([N+](=O)[O-])cc2[nH]1
inactive: [4] 94 % of control | [5] 92 % of control | [6] 103 % of control

N[C@H](C(=O)O)[C@@H]1CC(S(=O)(=O)c2ccccc2)=NO1
inactive: dose: 12.5 mg/kg/injection, schedule: Q01DX005 (ip), vehicle: distilled water + Tween-80 102 % of control | dose: 25.0 mg/kg/injection, schedule: Q01DX005 (ip), vehicle: distilled water + Tween-80 102 % of control

Source: PubChem BioAssay AID330 (DTP/NCI, 2004)
